Data published in patent publication US20160326142A1, “PYRAZOLE CARBOXAMIDE COMPOUNDS, COMPOSITIONS AND METHODS OF USE” (Genentech, Inc., priority 2012, published 2016).

Each molecule was assayed against T1, ITK (Homo sapiens, UniProt Q08881) (assay: ITK enzyme assay (Caliper or LCMS peptide phosphorylation)). Settings: purified ITK (Invitrogen PV3875), 20 μM ATP, Ki by Morrison's quadratic equation.
T1 construct: purchased Invitrogen PV3875
T1 sequence (Q08881 1-620): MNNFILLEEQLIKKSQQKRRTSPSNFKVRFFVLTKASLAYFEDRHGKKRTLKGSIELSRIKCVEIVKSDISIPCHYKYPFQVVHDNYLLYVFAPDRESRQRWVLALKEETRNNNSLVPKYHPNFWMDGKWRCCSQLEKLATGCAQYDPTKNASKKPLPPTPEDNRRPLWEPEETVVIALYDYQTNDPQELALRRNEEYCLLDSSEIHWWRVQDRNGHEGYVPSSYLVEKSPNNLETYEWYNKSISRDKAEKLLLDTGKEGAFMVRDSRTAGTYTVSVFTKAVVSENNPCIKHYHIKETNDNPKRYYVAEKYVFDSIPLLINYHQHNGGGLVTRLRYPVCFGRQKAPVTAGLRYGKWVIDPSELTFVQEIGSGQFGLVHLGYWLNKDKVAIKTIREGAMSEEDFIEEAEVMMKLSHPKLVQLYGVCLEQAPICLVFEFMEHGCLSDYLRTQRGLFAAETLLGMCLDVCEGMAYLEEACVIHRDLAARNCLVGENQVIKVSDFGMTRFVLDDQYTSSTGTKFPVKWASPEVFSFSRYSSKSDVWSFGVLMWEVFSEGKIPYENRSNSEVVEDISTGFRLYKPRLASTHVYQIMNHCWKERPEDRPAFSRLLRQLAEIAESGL
Format: biochemical
Protocol: The ability of purified ITK (Invitrogen PV3875) to catalyze peptide phosphorylation is monitored using a Caliper LabChip 3000 microfluidic unit (Caliper assay) or by liquid chromatography-mass spectrometry (LCMS) using a Waters Acquity system (LCMS assay). […] Reactions are quenched by the addition of 2,2′,2″,2′″-(ethane-1,2-diyldinitrilo)tetraacetic acid (50 mM final). Non-phosphorylated substrate and phosphorylated product peptides are separated and quantified using a Caliper LabChip 3000 instrument. […] Reactions are quenched by the addition of trichloroacetic acid (5% v/v final). Non-phosphorylated substrate and phosphorylated product peptides are separated by ultra performance LC and detected by a coupled triple quadrupole MS device applying multiple reaction monitoring (MRM) for quantification. The area of the MRM-extracted mass signal is used to assess the inhibition by test compounds. Equilibrium dissociation constant (Ki) values for ITK inhibitors are calculated from plots of activity vs. inhibitor concentration using Morrison's quadratic equation that accounts for the potential of tight binding, and by also applying the conversion factor that accounts for competitive inhibition and the concentration of ATP used in the assay relative to its apparent Michaelis constant (Km,app).

Row | Ki | SMILES
1 | 4 nM | CC1(C)CCc2c(C(=O)Nc3cnn(C(CN4CCCC4=O)c4ccccc4)c3)n[nH]c2C1 (racemic) [Example 76, 6,6-dimethyl-N-(1-(2-(2-oxopyrrolidin-1-yl)-1-phenylethyl)-1H-pyrazol-4-yl)-4,5,6,7-tetrahydro-1H-indazole-3-carboxamide]
2 | 9.4 nM | N#Cc1cccc(Cn2cc(NC(=O)c3n[nH]c4c3CCC(c3cn[nH]c3)C4)cn2)c1 (single isomer, unassigned) [Example 1a, N-(1-(3-cyanobenzyl)-1H-pyrazol-4-yl)-6-(1H-pyrazol-4-yl)-4,5,6,7-tetrahydro-1H-indazole-3-carboxamide]
3 | 8.3 nM | N#Cc1cccc(Cn2cc(NC(=O)c3n[nH]c4c3CCC(c3cn[nH]c3)C4)cn2)c1 (single isomer, unassigned) [Example 1b, N-(1-(3-cyanobenzyl)-1H-pyrazol-4-yl)-6-(1H-pyrazol-4-yl)-4,5,6,7-tetrahydro-1H-indazole-3-carboxamide]
4 | 68 nM | N#Cc1cccc(Cn2cc(NC(=O)c3n[nH]c4c3CC(c3cn[nH]c3)CC4)cn2)c1 (single isomer, unassigned) [Example 2a, N-(1-(3-cyanobenzyl)-1H-pyrazol-4-yl)-5-(1H-pyrazol-4-yl)-4,5,6,7-tetrahydro-1H-indazole-3-carboxamide]
5 | 34 nM | N#Cc1cccc(Cn2cc(NC(=O)c3n[nH]c4c3CC(c3cn[nH]c3)CC4)cn2)c1 (single isomer, unassigned) [Example 2b, N-(1-(3-cyanobenzyl)-1H-pyrazol-4-yl)-5-(1H-pyrazol-4-yl)-4,5,6,7-tetrahydro-1H-indazole-3-carboxamide]
6 | 360 nM | N#Cc1cccc(Cn2cc(NC(=O)c3n[nH]c4c3CCC(c3cncnc3)C4)cn2)c1 (single isomer, unassigned) [Example 4a, N-(1-(3-cyanobenzyl)-1H-pyrazol-4-yl)-6-(pyrimidin-5-yl)-4,5,6,7-tetrahydro-1H-indazole-3-carboxamide]
7 | 240 nM | N#Cc1cccc(Cn2cc(NC(=O)c3n[nH]c4c3CCC(c3cncnc3)C4)cn2)c1 (single isomer, unassigned) [Example 4b, N-(1-(3-cyanobenzyl)-1H-pyrazol-4-yl)-6-(pyrimidin-5-yl)-4,5,6,7-tetrahydro-1H-indazole-3-carboxamide]
8 | 310 nM | N#Cc1cccc(Cn2cc(NC(=O)c3n[nH]c4c3CCC(O)C4)cn2)c1 (single isomer, unassigned) [Example 5a, N-(1-(3-cyanobenzyl)-1H-pyrazol-4-yl)-6-hydroxy-4,5,6,7-tetrahydro-1H-indazole-3-carboxamide]
9 | 380 nM | N#Cc1cccc(Cn2cc(NC(=O)c3n[nH]c4c3CCC(O)C4)cn2)c1 (single isomer, unassigned) [Example 5b, N-(1-(3-cyanobenzyl)-1H-pyrazol-4-yl)-6-hydroxy-4,5,6,7-tetrahydro-1H-indazole-3-carboxamide]
10 | 70 nM | CC1CCc2[nH]nc(C(=O)Nc3cnn(Cc4ccccc4)c3)c2C1 (single isomer, unassigned) [Example 8a, N-(1-benzyl-1H-pyrazol-4-yl)-5-methyl-4,5,6,7-tetrahydro-1H-indazole-3-carboxamide]
11 | 77 nM | CC1CCc2[nH]nc(C(=O)Nc3cnn(Cc4ccccc4)c3)c2C1 (single isomer, unassigned) [Example 8b, N-(1-benzyl-1H-pyrazol-4-yl)-5-methyl-4,5,6,7-tetrahydro-1H-indazole-3-carboxamide]
12 | 120 nM | O=C(Nc1cnn(Cc2ccccc2)c1)c1n[nH]c2c1CCC(CO)C2 (single isomer, unassigned) [Example 14a, N-(1-benzyl-1H-pyrazol-4-yl)-6-(hydroxymethyl)-4,5,6,7-tetrahydro-1H-indazole-3-carboxamide]
13 | 21 nM | O=C(Nc1cnn(Cc2ccccc2)c1)c1n[nH]c2c1CCC(CO)C2 (single isomer, unassigned) [Example 14b, N-(1-benzyl-1H-pyrazol-4-yl)-6-(hydroxymethyl)-4,5,6,7-tetrahydro-1H-indazole-3-carboxamide]
14 | 11 nM | CN(C)CCC(c1ccccc1)n1cc(NC(=O)c2n[nH]c3c2CCC2(COC2)C3)cn1 (single isomer, unassigned) [Example 15a, N-(1-(3-(dimethylamino)-1-phenylpropyl)-1H-pyrazol-4-yl)-1,4,5,7-tetrahydrospiro[indazole-6,3′-oxetane]-3-carboxamide]
15 | 100 nM | CN(C)CCC(c1ccccc1)n1cc(NC(=O)c2n[nH]c3c2CCC2(COC2)C3)cn1 (single isomer, unassigned) [Example 15b, N-(1-(3-(dimethylamino)-1-phenylpropyl)-1H-pyrazol-4-yl)-1,4,5,7-tetrahydrospiro[indazole-6,3′-oxetane]-3-carboxamide]
16 | 0.5 nM | CN(C)CCC(c1ccccc1)n1cc(NC(=O)c2n[nH]c3c2CCC2(CC2)C3)cn1 (single isomer, unassigned) [Example 16a, N-(1-(3-(dimethylamino)-1-phenylpropyl)-1H-pyrazol-4-yl)-1′,4′,5′,7′-tetrahydrospiro[cyclopropane-1,6′-indazole]-3′-carboxamide]
17 | 7.9 nM | CN(C)CCC(c1ccccc1)n1cc(NC(=O)c2n[nH]c3c2CCC2(CC2)C3)cn1 (single isomer, unassigned) [Example 16b, N-(1-(3-(dimethylamino)-1-phenylpropyl)-1H-pyrazol-4-yl)-1′,4′,5′,7′-tetrahydrospiro[cyclopropane-1,6′-indazole]-3′-carboxamide]
18 | 24 nM | O=C(Nc1cnn(Cc2ccccc2)c1)c1n[nH]c2c1C1CC1CC2 (single isomer, unassigned) [Example 23a, N-(1-benzyl-1H-pyrazol-4-yl)-3,4,5,5a,6,6a-hexahydrocyclopropa[e]indazole-1-carboxamide]
19 | 550 nM | O=C(Nc1cnn(Cc2ccccc2)c1)c1n[nH]c2c1C1CC1CC2 (single isomer, unassigned) [Example 23b, N-(1-benzyl-1H-pyrazol-4-yl)-3,4,5,5a,6,6a-hexahydrocyclopropa[e]indazole-1-carboxamide]
20 | 9.4 nM | CC[C@@H](c1ccccc1)n1cc(NC(=O)c2n[nH]c3c2CC2CC2C3)cn1 (single isomer, unassigned) [Example 24a]
21 | 3.5 nM | CC[C@@H](c1ccccc1)n1cc(NC(=O)c2n[nH]c3c2CC2CC2C3)cn1 (single isomer, unassigned) [Example 24b]
22 | 1.7 nM | CC[C@@H](c1ccccc1)n1cc(NC(=O)c2n[nH]c3c2C2CC2CC3)cn1 (single isomer, unassigned) [Example 25a]
23 | 94 nM | CC[C@@H](c1ccccc1)n1cc(NC(=O)c2n[nH]c3c2C2CC2CC3)cn1 (single isomer, unassigned) [Example 25b]
24 | 2 nM | CN(C)CCC(c1ccccc1)n1cc(NC(=O)c2n[nH]c3c2C2CC2CC3)cn1 (single isomer, unassigned) [Example 26a, N-(1-(3-(dimethylamino)-1-phenylpropyl)-1H-pyrazol-4-yl)-3,4,5,5a,6,6a-hexahydrocyclopropa[e]indazole-1-carboxamide]
25 | 46 nM | CN(C)CCC(c1ccccc1)n1cc(NC(=O)c2n[nH]c3c2C2CC2CC3)cn1 (single isomer, unassigned) [Example 26b, N-(1-(3-(dimethylamino)-1-phenylpropyl)-1H-pyrazol-4-yl)-3,4,5,5a,6,6a-hexahydrocyclopropa[e]indazole-1-carboxamide]
26 | 22 nM | CN(C)CCC(c1ccccc1)n1cc(NC(=O)c2n[nH]c3c2C2CC2CC3)cn1 (single isomer, unassigned) [Example 26c, N-(1-(3-(dimethylamino)-1-phenylpropyl)-1H-pyrazol-4-yl)-3,4,5,5a,6,6a-hexahydrocyclopropa[e]indazole-1-carboxamide]
27 | 780 nM | CN(C)CCC(c1ccccc1)n1cc(NC(=O)c2n[nH]c3c2C2CC2CC3)cn1 (single isomer, unassigned) [Example 26d, N-(1-(3-(dimethylamino)-1-phenylpropyl)-1H-pyrazol-4-yl)-3,4,5,5a,6,6a-hexahydrocyclopropa[e]indazole-1-carboxamide]
28 | 30 nM | Cn1cc(C(c2ccccc2)n2cc(NC(=O)c3n[nH]c4c3CC3CC3C4)cn2)cn1 (single isomer, unassigned) [Example 27a, N-(1-((1-methyl-1H-pyrazol-4-yl)(phenyl)methyl)-1H-pyrazol-4-yl)-1,4,4a,5,5a,6-hexahydro cyclopropa[f]indazole-3-carboxamide]
